Test results reported in patent publication US20030186423A1, “Amidase from variovorax” (Degussa AG, priority 2001, published 2003).

Experiments:
Format in all cases: biochemical, Variovorax paradoxus
[1] = tested on: D-amidase; experiment: Enzyme test for acid amides, activity by determination of ammonium ions with glutamate dehydrogenase; conditions: substrate 40 mM
Description: The activity was measured by determination of the ammonium ions with glutamate dehydrogenase (Bergmeyer, H. U., and Beutler, H.-O. (1985), Ammonia. In: Methods of Enzymatic Analysis. VCH-Verlag, 3rd edition, vol. 8: 454-461, Weinheim). […] The substrates were employed in the enzyme test at 40 mM, except for succinic acid diamide and adipic acid diamide, each at 10 mM, and benzylamide at 20 mM. Since the activities were determined only at in each case one substrate concentration, relative activities are stated.
(§1) In the conversion of tert-leucinamide (gen. acid amides) by the D-amidase, the formation of ammonia or ammonium ions and tert-leucine (gen. acid) in equimolar amounts occurs. […] The change in concentration of the components participating can be measured in an enzyme test, which comprises incubation of the following test batch for 10-60 minutes at 30° C.
(§2) The enzyme test was started by addition of the substrate and the reaction was stopped by heating at 95° C. for three minutes. The analysis of the reaction products was carried out for ammonium ions by enzymatic determination of ammonium by glutamate dehydrogenase (Bergmeyer, H.,U., and Beutler, H.-O. (1985) Ammonia. In: Methods of Enzymatic Analysis. VCH-Verlag, 3rd edition, vol. 8: 454-461, Weinheim) and for D- and L-tert-leucine by means of HPLC (Bruckner, H., Wittner R., and Godel H., (1991) Fully automated high-performance liquid chromatographic separation of DL-amino acids derivatized with o-phthaldialdehyde together with N-isopropyl-cysteine. Application to food samples. Anal. Biochem. 144(1): 204-206). Batches to which no substrate were added served as controls.
(§3) The enzyme glutamate dehydrogenase (GluDH; E.C.1.4.1.3) converts 2-oxoglutarate into L-glutamate, ammonium ions being consumed and NADH being oxidized to NAD+(Bergmeyer, H.,U. and Beutler, H.-O. (1985), Ammonia. In: Methods of Enzymatic Analysis. VCH-Verlag, 3rd edition, vol. 8: 454-461, Weinheim). The amount of NADH consumed during the reaction is equivalent to the amount of ammonium ions. The change in the concentration of NADH is the measurement parameter and can be determined spectrophotometrically at a wavelength of 340 nm.
The test components were pipetted into cells of plastic (1.5 ml semimicro disposable cells, Brand) and mixed and the extinction at 340 nm was determined after 5 min. 10 μl GluDH were then added, and after the reaction had gone to completion, as a rule after 30 min, the extinction was measured again.

[2] = tested on: D-amidase; experiment: Enzyme test for amino acid amides and α-hydroxycarboxylic acid amides (HPLC or NH4+ determination); conditions: substrate 40 mM
Description: For prolinamide, and the α-hydroxycarboxylic acid amides lactic acid amide (Lac-NH2) and 2-hydroxy-4-methylmercaptobutyric acid amid (MHA-NH2), the methionine-analogous α-hydroxycarboxylic acid amide, determination of the product with the previous HPLC analysis is not possible. For these substrates, the activity was determined with the aid of NH4^+ determination. […] All the substrates were employed in the enzyme test at 40 mM. In the 4th column, for further comparison the activity for the lower enantiomer has been set at 1 and a relative activity for the preferred enantiomer has been calculated therefrom.
as §1, §2
(§4) The separation and quantitative determination of the enantiomers D- and L-tert-leucine were carried out by a “chiral derivatization” on the basis of o-phthaldialdehyde (OPA)/N-isobutyryl-L-cysteine or N-isobutyryl-D-cysteine (Brückner, H.; Wittner R. and Godel H. (1991), Fully automated high-performance liquid chromatographic separation of DL-amino acids derivatized with o-Phthaldialdehyde together with N-isopropyl-cysteine. Application to food samples. Anal. Biochem. 144, 204-206). The diastereomeric isoindole derivatives formed were separated on an RP-18 (reversed phase) column and detected by fluorescence. A two-buffer system of aqueous acetate buffer and an acetonitrile/water mixture was used as the mobile phase.

[3] = tested on: D-amidase; experiment: Kinetic cleavage of racemic amino acid amides: enantioselectivity as a function of the conversion
Description: To evaluate the suitability for kinetic cleavage of racemic DL-Tle-NH2, the enantioselectivity was determined as a function of the conversion.
DL-Valin-, DL-leucin- and DL-phenylalaninamide were alos tested in this respect. For this, the enantioselectivity was determined as function of the conversion with partly purified enzyme from Variovorax paradoxus 19-3 after the 1st chromatography step.
as §4

[4] = tested on: D-amidase; experiment: Enzyme test for N-formylated amino acid amides, NH4+ determination with glutamate dehydrogenase
Description: as §3, with “The cleavage of racemic N-formylated amino acid amides was investigated by using the D-amidase according to the invention. The enzyme used was a partly purified D-amidase after the 1st chromatography step. The activity was measured by determining the NH4^+ ions with glutamate dehydrogenase (Bergmeyer, H. U., and Beutler, H.-O. (1985), Ammonia. In: Methods of Enzymatic Analysis. VCH-Verlag, 3rd edition, vol. 8: 454-461, Weinheim). The following substrates were employed in the enzyme test at 10 mM. The enzyme” for “The enzyme”

[5] = tested on: D-amidase; experiment: Specific activity of crude extracts and purified D-amidase for DL-Tle-NH2; conditions: DL-Tle-NH2 as the substrate
Description: as §1, §2

CC(C)(C)C(N)C(N)=O (racemic) [DL-Tle-NH2, D,L-tert-Leucinamide]
Activity with respect to Tle-NH2 ([1]; DL-Tle-NH2 = 1): 1 | Relative act. ([1]; partly purified D-amidase after the 2nd chromatography step (0.51 U/mg)): 0.51 U/mg | Activity with respect to Tle-NH2 ([2]; DL-Tle-NH2 = 1): 1 | Specific activity ([2]; partly purified D-amidase after the 2nd chromatography step (0.56 U/mg), Pro-, Lac-, MHA-NH2 by NH4+ determination): 0.56 U/mg | E value ([3]; both series of experiments (partly purified and virtually homogeneous enzyme)): greater than 100 | enantioselectivity with respect to D-Tle ([3]; partly purified enzyme after the 1st chromatography step, conversion of greater than 45%): 96.6% | Activity with respect to Tle-NH2 ([4]; Table 4, DL-Tle-NH2 = 100): 100% | Relative act. ([4]; Table 4, substrate 10 mM, partly purified D-amidase after the 1st chromatography step): 200 mU/mg | Specific activity ([5]; D-amidase after the first two purification steps): 0.68 U/mg | Specific activity ([5]; crude extract of E. coli JM 101 expression clones): 80-210 mU/mg | Specific activity ([5]; homogeneously purified D-amidase from Variovorax paradoxus): 1.4 U/mg

CC(C)[C@H](N)C(N)=O (racemic) [DL-Val-NH2, valinamide]
E value ([3]; conversion 3%): 190 | ee D-Val ([3]; conversion 3%, partly purified enzyme after the 1st chromatography step): 98.9% | E value ([3]; conversion 15%): 180 | ee D-Val ([3]; conversion 15%, partly purified enzyme after the 1st chromatography step): 98.7% | E value ([3]; conversion 29%): 200 | ee D-Val ([3]; conversion 29%, partly purified enzyme after the 1st chromatography step): 98.5% | E value ([3]; conversion 42%): 220 | ee D-Val ([3]; conversion 42%, partly purified enzyme after the 1st chromatography step): 98.1% | E value ([3]; conversion 50%): 140 | ee D-Val ([3]; conversion 50%, partly purified enzyme after the 1st chromatography step): 95.1% | E value ([3]; conversion 57%): 56 | ee D-Val ([3]; conversion 57%, partly purified enzyme after the 1st chromatography step): 75.0% | Activity with respect to Tle-NH2 ([4]; Table 5, DL-Val-NH2 = 100): 100% | Relative act. ([4]; Table 5, comparison of valinamide and N-formyl-valinamide): 870 mU/mg
